One experiment has as its system rabbits. As to the kind of experiment: Immunization of rabbits with ova-conjugated peptides. It is filed as in vivo, New Zealand White rabbit. The conditions noted are these: peptides conjugated onto ovalbumin, sera after 3 rounds of immunization. From the text:
An overlapping peptide library spanning the entire length HCMV gO polypeptide from strain TR was obtained from Genscript Biotech, Piscataway, NJ. The peptides consisted of 20 amino acids in length with 7 amino acid overlap and a biotin moiety conjugated to the C-terminus. A panel of 8 a.a. peptides overlapping by 7 a.a. and a biotin moiety conjugated to the C-terminus that were derived from the protein sequences: 248-[…]-267 or 326-[…]-345 (S2 Table) were also obtained from Genscript Biotech. Peptides derived from the gO polypeptide sequence 235-[…]-267 (peptide 19/20 from overlapping library) and 326-[…]-345 (peptide 26 from overlapping library) were synthesized conjugated onto ovalbumin (ova). These ova-peptides were used to produce New Zealand White rabbit polyclonal sera by priming rabbits with ova-peptides in Freund’s adjuvant then boosting the rabbits with ova-peptides in TiterMax Gold adjuvant (Sigma, St. Louis, MO). Rabbit antibodies specific for peptide 20, 26 and ovalbumin were purified using peptides ova-20 and ova-26 or ova (without peptides) by coupling these proteins to AminoLink (Thermo Scientific).

The subject of experiment [1] is neutralizing Abs from human serum. As to the kind of experiment: Depletion of neutralizing Abs from human sera, read out by HCMV neutralization on ARPE-19. It counts as cell-based. As to the method:
Fig 7 gO peptides 20 and 26 deplete neutralizing Abs from human serum. (A) Pooled HCMV seropositive serum was diluted to (NT100) titers then incubated with either no protein, 1μg of soluble trimer, or gO peptides (with biotin): 20, 26, 32 or 33 (each at 0.5 mM) for 1 h at 37°C. […] The trimer was removed using nickel-agarose and peptides removed using streptavidin-agarose. The remaining Abs were tested in neutralization assays involving HCMV (BADrUL131) and ARPE-19 epithelial cells. The relative infectivity of HCMV after incubation with these sera was determined by counting GFP+ (infected) cells after 24 h of infection and compared to the numbers of infected cells following incubation of HCMV with similarly diluted sera from HCMV seronegative donors (sero-neg) Data was collected from three separate wells for each condition. (B and C) Two panels of 8 a.a. peptides with 7 a.a. overlap were derived from peptide 20 (B) or peptide 26 (C). These peptides were tested in depletion assays as in panel A. The relative infectivity of HCMV (BADrUL131) on ARPE-19 epithelial cells was determined and normalized to the level of HCMV infectivity with depletions performed with soluble trimer. Data was collected from a randomly selected field of the same surface area from each well.
These sera were then tested in HCMV neutralization assays as described above.

Experiment [2] relates to Abs present in HCMV seropositive human serum. As to the kind of experiment: ELISA of biotinylated gO peptides with pooled human transplant sera. To be noted: biotin peptides 0.5 mM on streptavidin plates, pool of 5 sera diluted to NT100. It counts as binding. As to the method: Fig 5 gO peptides recognized by Abs present in HCMV seropositive human serum. The panel of gO peptides with C-terminal biotin tags were incubated in the wells of streptavidin-coated ELISA plates. The wells were washed and then incubated with a pool of 5 different human sera from transplant patients that had been diluted to the NT100 titers. The plates were washed and incubated with goat-anti human-IgG-HRP for 1 h at room temperature, washed, and incubated with Turbo-TMB substrate. Control conditions included no peptide plus human sera (red bar) and wells coated with soluble trimer (instead of peptides) and human sera (green bar). The absorbance values are indicated on the y-axis and the numbers of the individual gO peptides are indicated on the x-axis.
For cell-based ELISA assays, ARPE-19 epithelial or fibroblast cells in 96-well plates were fixed with 4% paraformaldehyde, washed with PBS supplemented with 0.1M glycine pH.7.2, then washed with PBS plus 2% BSA and incubated with soluble trimers or gH/gL complexes at 10 μg/ml (or 20 μg/ml in the case of gO-417) in PBS with 2% BSA at room temperature for 1 h. […] The colorometric reaction was stopped by adding 100 μl of 1M sulfuric acid to the wells and then the substrate development was read in a Molecular Dynamics precision plate reader at a wavelength of 450 nm.

With “LRDLATWVYTTLRYRQNPFC [Peptide 26, gO (TR) a.a; 326-345, C-terminal biotin; also ova-conjugated for immunization]”, in the experiment on rabbits, the “induction of gO-specific NAbs in rabbits” value is on record as “able to induce gO-specific NAbs”. Besides, the “HCMV infectivity with sera after depletion” value in experiment [1] (pooled human transplant sera at NT100, 1 μg soluble trimer or 0.5 mM biotin peptide, 1 h 37°C, relative to seronegative sera, three wells) was 45%. For the same sequence, the “binding of IgG from human transplant sera” value in experiment [2] is recorded as “binding higher quantities of IgG compared with other peptides”.

In the case of “FRVPKYINGTKLKNTMRKLKRKQAPVKEQSEKK [Peptide 19/20, peptide containing all of peptides 19 and 20 (a.a. 235-267), conjugated onto ovalbumin]”, the “induction of gO-specific NAbs in rabbits” value with rabbits was “able to induce gO-specific NAbs”.

“TTTPYSPYTTSTALNVTTNA [Peptide 22, gO (TR) a.a; 274-293, C-terminal biotin; negative control in depletion]”: in experiment [1] (pooled sera at NT100, 0.5 mM biotin peptide), the “depletion of NAbs from human sera” value was “retained complete neutralizing capacity”. The “binding of IgG from human transplant sera” value in experiment [2] is “did not bind substantial IgG”.

These data come from PMC9032346, “Identification of functionally important domains of human cytomegalovirus gO that act after trimer binding to receptors” (PLoS Pathogens, 2022).
